Experimental data: ChEMBL document CHEMBL4825729, “Modulators of immunoregulatory exonucleases PLD3 and PLD4 identified by high-throughput screen” (Bioorg Med Chem Lett, 2021); call rule not given here
pEC50, pIC50: −log10 of the molar value.

What was measured:
5'-3' exonuclease PLD4 [1] = biological target: T1, 5'-3' exonuclease PLD4 (Homo sapiens, UniProt Q96BZ4); assay: Inhibition of PLD4 (unknown origin) using 3'-dT-MUP as substrate by fluorescence-based screening assay
T1 sequence (Q96BZ4 whole entry): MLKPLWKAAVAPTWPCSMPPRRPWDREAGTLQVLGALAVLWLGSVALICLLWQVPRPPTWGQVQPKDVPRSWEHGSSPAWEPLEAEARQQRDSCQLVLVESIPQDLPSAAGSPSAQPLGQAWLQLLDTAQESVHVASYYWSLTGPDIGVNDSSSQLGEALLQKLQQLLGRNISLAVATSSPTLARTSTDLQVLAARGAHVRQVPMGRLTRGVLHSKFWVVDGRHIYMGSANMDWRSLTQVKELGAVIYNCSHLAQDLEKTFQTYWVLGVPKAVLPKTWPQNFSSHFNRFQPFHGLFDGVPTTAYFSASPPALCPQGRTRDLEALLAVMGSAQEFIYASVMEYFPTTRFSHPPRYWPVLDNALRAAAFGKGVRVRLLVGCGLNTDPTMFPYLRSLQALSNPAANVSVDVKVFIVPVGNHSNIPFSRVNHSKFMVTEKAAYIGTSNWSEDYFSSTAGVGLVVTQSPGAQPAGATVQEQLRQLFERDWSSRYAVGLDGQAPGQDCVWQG

5'-3' exonuclease PLD3 [2] = biological target: T2, 5'-3' exonuclease PLD3 (Homo sapiens, UniProt Q8IV08); assay: Inhibition of PLD3 (unknown origin) using 3'-dT-MUP as substrate by fluorescence-based screening assay
T2 sequence (Q8IV08 whole entry): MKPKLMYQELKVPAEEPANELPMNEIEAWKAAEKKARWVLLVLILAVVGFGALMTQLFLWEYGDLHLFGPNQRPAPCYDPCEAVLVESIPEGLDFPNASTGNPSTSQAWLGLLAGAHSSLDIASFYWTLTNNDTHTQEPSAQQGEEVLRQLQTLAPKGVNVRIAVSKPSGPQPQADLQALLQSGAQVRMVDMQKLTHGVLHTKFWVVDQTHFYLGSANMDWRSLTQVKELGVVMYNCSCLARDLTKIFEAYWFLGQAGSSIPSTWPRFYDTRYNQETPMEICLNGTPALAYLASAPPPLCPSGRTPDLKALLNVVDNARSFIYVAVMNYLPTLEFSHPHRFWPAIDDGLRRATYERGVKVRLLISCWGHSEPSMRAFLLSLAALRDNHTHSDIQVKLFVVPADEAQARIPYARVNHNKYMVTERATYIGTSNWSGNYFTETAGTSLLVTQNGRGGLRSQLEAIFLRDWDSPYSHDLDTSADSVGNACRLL

[3] = biological target: T3, 5'-3' exonuclease PLD3 (Homo sapiens) (UniProt Q8IV08); assay: Mixed type inhibition of PLD3 (unknown origin) assessed as Km using varying concentration 3'-dT-MUP as substrate by fluorescence-based screening assay
T3 sequence (whole entry): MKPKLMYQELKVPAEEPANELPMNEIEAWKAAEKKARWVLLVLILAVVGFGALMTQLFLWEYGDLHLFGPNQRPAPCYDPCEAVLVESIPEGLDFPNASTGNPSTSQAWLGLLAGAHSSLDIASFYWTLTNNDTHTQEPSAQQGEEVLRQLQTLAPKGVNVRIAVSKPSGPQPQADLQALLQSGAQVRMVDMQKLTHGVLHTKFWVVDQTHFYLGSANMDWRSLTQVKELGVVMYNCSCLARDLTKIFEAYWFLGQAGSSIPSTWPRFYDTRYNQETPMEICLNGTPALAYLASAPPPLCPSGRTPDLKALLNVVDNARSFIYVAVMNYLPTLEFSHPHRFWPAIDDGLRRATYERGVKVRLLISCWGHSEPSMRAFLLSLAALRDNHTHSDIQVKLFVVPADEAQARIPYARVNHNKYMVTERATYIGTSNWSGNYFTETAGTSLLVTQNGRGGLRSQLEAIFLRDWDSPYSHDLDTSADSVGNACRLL

5'-3' exonuclease PLD4 [4] = biological target: T1, 5'-3' exonuclease PLD4; assay: Inhibition of PLD4 (unknown origin) using 3'-dT-nNPP as substrate by fluorescence-based screening assay
[5] = biological target: T3, 5'-3' exonuclease PLD3 (Homo sapiens); assay: Mixed type inhibition of PLD3 (unknown origin) assessed as binding constant using varying concentration 3'-dT-MUP as substrate by fluorescence-based screening assay
5'-3' exonuclease PLD3 [6] = biological target: T2, 5'-3' exonuclease PLD3; assay: Inhibition of PLD3 (unknown origin) using 3'-dT-nNPP as substrate by fluorescence-based screening assay
[7] = biological target: T3, 5'-3' exonuclease PLD3 (Homo sapiens); assay: Activation of PLD3 (unknown origin) assessed as association constant using varying concentration 3'-dT-MUP as substrate by fluorescence-based screening assay; conditions: filed as activator
5'-3' exonuclease PLD4 [8] = biological target: T1, 5'-3' exonuclease PLD4; assay: Activation of PLD4 (unknown origin) using 3'-dT-MUP as substrate by fluorescence-based screening assay
5'-3' exonuclease PLD4 [9] = biological target: T1, 5'-3' exonuclease PLD4; assay: Activation of PLD4 (unknown origin) using 3'-dT-nNPP as substrate by fluorescence-based screening assay
5'-3' exonuclease PLD3 [10] = biological target: T2, 5'-3' exonuclease PLD3; assay: Activation of PLD3 (unknown origin) using 3'-dT-nNPP as substrate by fluorescence-based screening assay
5'-3' exonuclease PLD3 [11] = biological target: T2, 5'-3' exonuclease PLD3; assay: Activation of PLD3 (unknown origin) using 3'-dT-MUP as substrate by fluorescence-based screening assay

Compound | pIC50 (5'-3' exonuclease PLD4 [1]) | pIC50 (5'-3' exonuclease PLD3 [2]) | INH [3] | pIC50 (5'-3' exonuclease PLD4 [4]) | INH [5] | pIC50 (5'-3' exonuclease PLD3 [6]) | Ka [7] | pEC50 (5'-3' exonuclease PLD4 [8]) | EC50 (5'-3' exonuclease PLD4 [9]) | pEC50 (5'-3' exonuclease PLD3 [10]) | pEC50 (5'-3' exonuclease PLD3 [11])
Cc1ccc(Cn2c(SCC(=O)O)nc3c2c(=O)n(C)c(=O)n3C)cc1 | 3.85 | 4.89 | 13.6 µM | 3.89 | 6.2 µM | 5.05 | – | – | – | – | –
Cc1nc(SCC(=O)N2CCC(C)CC2)c2ccsc2n1 | – | – | – | – | – | – | 80.9 µM | 3.94 | Not Active | 4.71 | 4.89
